According to patent US20080096208A1, “BIOMARKERS FOR ASSESSING RESPONSE TO C-MET TREATMENT” (priority 2006, published 2008):

Key:
PC-3 cells = assay: Micro array analysis of PC-3 cells stimulated by HGF; type: cell-based
Excerpt: In order to identify biomarkers for the HGF response and potential inhibition of this response by small molecule HGF receptor (c-met) inhibitors, a micro array analysis of PC-3 cells stimulated by HGF over a time course of 1 hr to 2 days was used. TAQMAN was employed to examine mRNA levels of VEGF, CD44, Fibronectin, and MMP-1, each of which has been shown by others to be induced by HGF. Briefly, RNA is isolated by lysis of cultured cells or homogenization of tumor tissue in a guanidine solution, Trireagent from Molecular Research Center, Inc. The RNA is purified by a Qiagen column methodology under conditions recommended by the manufacturer and DNAse treated. Specific levels of mRNAs for the indicated genes are determined by Real-Time PCR, Taqman analysis using probes and primers specific for the genes examined and purchased from Applied Biosystems and the SDS2.1 quantitation software. Quantitation is performed by comparison of the cycle number where the sample crosses a threshold value vs a standard curve made of a pool of the RNA samples. Normalization is performed by comparing the amount of specific mRNA to that of 18S RNA or GAPDH mRNA. […] This response was then evaluated upon administration of the c-met inhibitor, 3DP-669366. […] This analysis was then evaluated upon administration of the acylhydrazone series of c-met inhibitors, JNJ-28823184 and JNJ-38429274. […]

[1] = test system: PC-3 prostate carcinoma cells; assay: Taqman real-time PCR of marker mRNA levels in HGF-stimulated PC-3 cells; type: cell-based
Excerpt: In order to identify biomarkers for the HGF response and potential inhibition of this response by small molecule HGF receptor (c-met) inhibitors, a micro array analysis of PC-3 cells stimulated by HGF over a time course of 1 hr to 2 days was used. TAQMAN was employed to examine mRNA levels of VEGF, CD44, Fibronectin, and MMP-1, each of which has been shown by others to be induced by HGF. Briefly, RNA is isolated by lysis of cultured cells or homogenization of tumor tissue in a guanidine solution, Trireagent from Molecular Research Center, Inc. The RNA is purified by a Qiagen column methodology under conditions recommended by the manufacturer and DNAse treated. Specific levels of mRNAs for the indicated genes are determined by Real-Time PCR, Taqman analysis using probes and primers specific for the genes examined and purchased from Applied Biosystems and the SDS2.1 quantitation software. Quantitation is performed by comparison of the cycle number where the sample crosses a threshold value vs a standard curve made of a pool of the RNA samples. Normalization is performed by comparing the amount of specific mRNA to that of 18S RNA or GAPDH mRNA. […] This response was then evaluated upon administration of the c-met inhibitor, 3DP-669366. […] The kinetics of the induction and the amplitude of the mRNA levels differ between the cell lines examined. The micro-array analysis identified LDL Receptor 1 (LDL-R1) as another protein that is induced by HGF and whose level of expression is diminished by treatment of cells with a HGF receptor inhibitor. This analysis was then evaluated upon administration of the acylhydrazone series of c-met inhibitors, JNJ-28823184 and JNJ-38429274. In in vivo tumor xenografts, the biomarkers identified by examination of cell culture responses to c-met inhibitors are also modulated in the in vivo setting. In a U87MG tumor xenograft in nude mice, a decrease in the mRNA levels of CD44, VEGF, LDLR1, and Osteopontin was observed.

[2] = between 8 and 48 hours following HGF addition, p<0.01

## HGF: hepatocyte growth factor (also known as scatter factor), ligand of the c-met receptor
PC-3 cells
  induction of LDL Receptor 1 (LDL-R1) by HGF: induced
[1]
  induction of Fibronectin mRNA by HGF: did not show a statistically significant induction
[1]; between 8 and 48 hours following HGF addition, p<0.001
  induction of VEGF mRNA by HGF: statistically significant induction
[1]; [2]
  induction of CD44 mRNA by HGF: statistically significant induction
  induction of MMP-1 mRNA by HGF: statistically significant induction
